According to patent US11173146B2, “Selective activators of the intermediate conductance CA2+activated K+ channel KCa3.1 and their methods of use” (The Regents of the University of California, priority 2014, dated 2021):
Entries after “also recorded” stand apart in the source; their conditions may differ. Read-outs that look alike come from different tables or passages of the source.

How the values were obtained:
[1] = biological target: KCa2.1 (Homo sapiens, UniProt Q92952); settings: literature, cited from earlier work
[2] = biological target: T1, KCa3.1 (Homo sapiens, UniProt O15554+P0DP23); settings: literature; cited from earlier work
[3] = system: KCa2 channels; settings: all three KCa2 channels; literature; cited from earlier work
[4] = biological target: T1, KCa3.1; assay: Whole-cell patch-clamp KCa3.1 activation (QPatch, HEK-293); format: cell-based; parameters: host or cells: HEK-293; settings: for effect of structural change on KCa2.3 and KCa3.1 activation compared with SKA-31: SAR, FIG. 2; for reduction of potency compared with SKA-31: KCa3.1
From the text: (§1) Cells, Cell lines and Clones. […] The cloning of hKCa2.3 (19 CAG repeats) and hKCa3.1 has been previously described (Wulff et al., 2000). The hKCa2.3 clone was later stably expressed in COS-7 cells at Aurora Biosciences Corp., San Diego, Calif. Cell lines stably expressing other mammalian ion channels were gifts from several sources: hKCa1.1 in HEK-293 cells (Andrew Tinker, University College London); hKV2.1 in HEK293 cells (James Trimmer, UC Davis); KV11.1 (HERG) in HEK-293 cells (Craig January, University of Wisconsin, Madison); hNaV1.4 in HEK-293 cells (Frank Lehmann-Horn, University of Ulm, Germany), hNaV1.5 in HEK-293 cells (Christopher Lossin, University of California Davis), and hCaV1.2 in HEK-293 cells (Franz Hofmann, Munich, Germany).
(§2) Electrophysiology. Experiments were conducted either manually with an EPC-10 amplifier (HEKA, Lambrecht/Pfalz, Germany) or on a QPatch-16 automated electrophysiology platform (Sophion Biosciences, Denmark). […] Patch pipettes were pulled from soda lime glass (micro-hematocrit tubes, Kimble Chase, Rochester, N.Y.) and had resistances of 2-3 MΩ. […] Free Ca^2+ concentrations were calculated with MaxChelator assuming a temperature of 25° C., a pH of 7.2 and an ionic strength of 160 mM. […] Na^+ aspartate Ringer was used as an external solution (in mM): 160 Na^+ aspartate, 4.5 KCl, 2 CaCl2, 1 MgCl2, 5 HEPES, pH 7.4, 290-310 mOsm. […] Reduction of both peak and tail current by the drug was determined. NaV1.7 currents were recorded with 30 ms pulses from −90 mV to −10 mV every 10 sec with a CsF-based pipette solution and normal Ringer as an external solution. CaV1.2 currents were elicited by 100-ms depolarizing pulses from −80 to 20 mV every 10 sec with a CsCl-based pipette solution and an external solution containing 30 mM BaCl2. Blockade of both Na^+ and Ca^2+ currents was determined as reduction of the current minimum.
For automated electrophysiology experiments cells were grown to ˜70% confluency, rinsed in sterile PBS containing 0.02% EDTA, and lifted with 2 mL of TrypLE™ Express (Gibco, Grand Island, N.Y.) for ˜2 min. When cells were rounded but not detached, they were dislodged by gentle tapping, suspended in DMEM, centrifuged and resuspended in 1 ml of external solution, placed into the Qfuge tube and resuspended in 150-200 μL extracellular solution after one additional spin on the QPatch. Whole-cell patch-clamp experiments were then carried out using disposable 16-channel planar patch chip plates (QPlates; patch hole diameter approximately 1 μm, resistance 2.00±0.02 MΩ). […] In order to avoid rejection of cells with large KCa3.1 currents the minimum seal resistance for whole-cell requirement was lowered to 0.001 GΩ. […] Following establishment of the whole-cell configuration, cells were held at −80 mV and KCa3.1, KCa2.1 or KCa2.2 currents elicited by a voltage protocol that held at −80 mV for 20 ms, stepped to −120 mV for 20 ms, ramped from −120 to 40 mV in 200 ms and then stepped back to −120 mV for 20 ms. This pulse protocol was applied every 10 s. […] NaV1.2 currents from N1E-115 cells, NaV1.4 and NaV1.5 currents from stably transfected HEK cells were recorded with 20 ms pulses from −90 mV to 0 mV every 10 sec with a KF-based internal solution and normal Ringer as an external solution. Current slopes (in ampere per sec) were measured using the SophionQPatch software and exported to Microsoft Excel and Origin 7.0 (OriginLab Corp. MA) for analysis. […] Data fitting to the Hill equation to obtain EC50 and IC50 values was performed with Origin 7.0. Data are expressed as mean±SD.

[5] = biological target: T2, human KCa2.3 (Homo sapiens, UniProt Q9UGI6); assay: Manual whole-cell patch-clamp KCa2.3 activation (COS-7); format: cell-based
T2 construct: The cloning of hKCa2.3 (19 CAG repeats) and hKCa3.1 has been previously described (Wulff et al., 2000)
T2 sequence (Q9UGI6 with tags, fused parts or gaps DUP76-80): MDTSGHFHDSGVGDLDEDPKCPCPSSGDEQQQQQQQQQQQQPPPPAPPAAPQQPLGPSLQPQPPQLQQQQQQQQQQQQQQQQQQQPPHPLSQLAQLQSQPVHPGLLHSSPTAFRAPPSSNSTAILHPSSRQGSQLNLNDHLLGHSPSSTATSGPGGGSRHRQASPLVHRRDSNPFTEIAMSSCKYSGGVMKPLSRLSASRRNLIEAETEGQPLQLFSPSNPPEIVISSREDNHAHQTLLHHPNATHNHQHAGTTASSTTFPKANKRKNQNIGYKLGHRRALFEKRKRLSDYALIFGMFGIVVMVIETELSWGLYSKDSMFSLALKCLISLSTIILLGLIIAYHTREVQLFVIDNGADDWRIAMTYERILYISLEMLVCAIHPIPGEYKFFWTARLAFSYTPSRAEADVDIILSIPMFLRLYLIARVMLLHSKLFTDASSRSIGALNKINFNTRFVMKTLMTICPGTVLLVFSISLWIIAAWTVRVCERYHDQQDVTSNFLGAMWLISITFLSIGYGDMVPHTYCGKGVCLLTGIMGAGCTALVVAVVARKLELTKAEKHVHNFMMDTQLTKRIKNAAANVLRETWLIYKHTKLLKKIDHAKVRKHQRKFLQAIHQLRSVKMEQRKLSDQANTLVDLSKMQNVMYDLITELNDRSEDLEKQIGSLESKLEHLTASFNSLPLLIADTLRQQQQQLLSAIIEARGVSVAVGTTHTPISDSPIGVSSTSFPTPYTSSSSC
From the text: as §1, §2
For all electrophysiology experiments solutions of benzothiazoles and benzooxazoles were always freshly prepared from 1 mM or 10 mM stock solutions in DMSO during the experiment. The final DMSO concentration never exceeded 1%. For automated assays glass vial inserts (Sophion Biosciences, Denmark) were filled with 350-400 μL of compound solution and placed into the glass insert base plate for use in the QPatch assay right before starting the QPatch.
The compounds synthesized by these methods as well as five commercially available compounds were tested for their KCa2.3 and KCa3.1 activating activity using either manual or automated whole-cell patch-clamp. Our group previously described the establishment of a QPatch assay for KCa3.1 modulators. […] We here made use of this assay and determined EC50 values for KCa3.1 activation using HEK-293 cells stably expressing human KCa3.1. Activities on human KCa2.3 were determined by manual electrophysioiogy since we currently only have KCa2.3 available in COS-7 cells, which are difficult to handle on the QPatch.

[6] = system: porcine coronary arteries; assay: Isometric myography on porcine coronary arteries, bradykinin-induced EDH-type relaxation; settings: blocker 1 μM
From the text: Isometric Myography on Porcine Coronary Arteries (PCA). PCA were carefully dissected from hearts kindly provided by the local abattoir (Mercazaragoza, Zaragoza, Spain), cleaned of fat and connective tissue, and cut into 3-4 mm rings. Rings were mounted on hooks connected to an isometric force transducer (Pioden UF1, Graham Bell House, Canterbury, UK) and were pre-stretched to an initial tension of 1 g. […] Changes in tension were registered using a Mac Lab System/8e program (AD Instruments Inc., Milford, Mass.). The buffer contained the NO-synthase blocker, Nω-nitro-L-arginine (L-NNA, 300 μM), and the cyclooxygenase blocker indomethacin (10 μM) in order to measure EDH-type relaxation. […] After washout, rings were contracted with a high KCl buffer (60 mM) to determine maximal contraction. […] UCL1684 and U46619 were purchased from Tocris (Wiesbaden-Nordenstadt, Germany). Data analysis: EDH-type relaxations were determined as % change of U46619 contraction and are shown relative to the totally relaxed state (w/o U46619).

[7] = 250 nM free Ca2+, read-out: EC50 for KCa2.3 activation
[8] = 250 nM free Ca2+, read-out: EC50 for KCa3.1 activation
[9] = Appendix A, read-out: KCa3.1 EC50 (converted)
[10] = Appendix A, read-out: KCa2.3 EC50

Compound | effect of structural change on KCa2.3 and KCa3.1 activation compared with SKA-31 [4] | melting point | also measured
CON=CNc1nc2nccc(C(C)Oc3ccc(Cl)cc3C)n2n1 (single isomer, unassigned; (-)) [(-)-CM-TMPF, N-{7-[1-(4-chloro-2-methylphenoxy)ethyl]-[1,2,4]triazolo[1,5-a]pyrimidin-2-yl}-N′-methoxy-formamidine] | – | – | KCa2.1 currents increased to % of their maximal activity ([1]; Ca2+ concentrations between 10 and 100 nM): roughly 40%
Cc1cc(NC2CCCCC2)nc(-n2nc(C)cc2C)n1 [CyPPA, cyclohexyl-[2-(3,5-dimethyl-pyrazole-1-yl-)6-methyl-pyrimidin-4-yl]-amine] | – | – | activity on KCa3.1 [2]: completely inactive; activity on KCa2.1 [1]: completely inactive
CCn1c(=O)[nH]c2ccccc21 [EBIO, 1-ethylbenzimidazolin-2-one] | – | – | EC50 [3]: ~300000 nM
Cc1cc(C)n(-c2nc(Nc3ccc(Cl)cc3)c3ncn(C)c3n2)n1 [NS13001] | – | – | activity on KCa3.1 [2]: completely inactive; activity on KCa2.1 [1]: completely inactive
Nc1nc2c(s1)Cc1ccccc1-2 [SKA-69, 8H-Indeno[1,2-d]thiazol-2-amine] | reduced both potency and selectivity | – | –
Nc1nc2c(s1)CCc1ccccc1-2 [SKA-70, 4,5-Dihydronaphtho[1,2-d]thiazol-2-amine] | reduced both potency and selectivity | – | –
Nc1nc2c(s1)Cc1cc(F)ccc1-2 [SKA-71, 6-Fluoro-8H-indeno[1,2-d]thiazol-2-amine] | reduced both potency and selectivity | 217 °C (dec.) | –
Nc1nc2c(cc(Cl)c3ccccc32)s1 [SKA-72, 5-Chloronaphtho[1,2-d]thiazol-2-amine] | – | 253 °C | EC50 [5, 7]: 335 nM; EC50 [4, 8]: 110 nM
Nc1nc2c(cc3c4c(cccc42)CC3)s1 [SKA-73, 4,5-Dihydroaceoaphtho[5,4-d]thiazol-8-amine] | – | 257 °C | EC50 [5, 7]: 1000 nM; EC50 [4, 8]: 1000 nM
Cc1nc2c(ccc3ccccc32)s1 [SKA-74, 2-methylnaphtho[1,2-d]thiazole] | completely abolished activity | – | EC50 [4, 9]: 7800 nM
Nc1nc(-c2cccc3ccccc23)cs1 [SKA-75, 2-Amino-4-(1-naphthyl)thiazole] | reduced both potency and selectivity | – | –
Nc1nc(-c2ccc3ccccc3c2)cs1 [SKA-76, 2-amino-4-(2-naphthyl)thiazole] | reduced both potency and selectivity | – | –
Nc1nc2c3c(ccc2s1)CCC3 [SKA-81, 7,8-Dihydro-6H-indeno[4,5-d]thiazol-2-amine] | reduction in potency | 195 °C | –
CC1=Nc2c(ccc3ccccc23)C1(C)C [SKA-92, 2,3,3-trimethyl-3H-benzo[g]indole] | completely abolished activity | – | EC50 [5, 10]: > 50000 nM; EC50 [4, 9]: 42000 nM
Nc1nc2c(ccc3ccccc32)o1 [SKA-102, Naphtho[1,2-d]oxazol-2-amine] | – | – | EC50 [5, 10]: 24000 nM; EC50 [4, 8]: 2700 nM
Cc1nc2cc3ccccc3cc2o1 [SKA-104, 2-methylnaphtho[2,3-d]oxazole] | completely abolished activity | – | EC50 [4, 9]: > 50000 nM
Nc1nc2c(cc(F)c3ccccc32)s1 [SKA-106, 5-Fluoronaphtho[1,2-d]thiazol-2-amme] | – | – | reduction of potency compared with SKA-31 [4]: roughly 10 fold
N#Cc1cc2sc(N)nc2c2ccccc12 [SKA-107, 2-Aminonaphtho[1,2-d]thiazole-5-carbonitrile] | reduced potency and selectivity | 265 °C | –
Cc1cc(C)c2c(c1)-c1nc(N)sc1CC2 [SKA-108, 6,8-Dimethyl-4,5-dihydronaphtho[1,2-d]thiazol-2-amine] | reduced both potency and selectivity | 159 °C | –
Cc1cc(C)c2ccc3sc(N)nc3c2c1 [SKA-109, 6,8-Dimethylnaphtho[1,2-d]thiazol-2-amine] | – | 157 °C | reduction of potency compared with SKA-31 [4]: 10 fold
Nc1nc2c(ccc3sccc32)s1 [SKA-110, Thieno[2′,3′:5,6]benzo[1,2-d]thiazol-2-amine] | reduction in potency | 161 °C | –
CC1Cc2sc(N)nc2-c2ccccc21 (stereo not shown) [SKA-113, 5-Methyl-4,5-dihydronaphtho[1,2-d]thiazol-2-amine] | reduced both potency and selectivity | 109 °C (dec.) | –
COc1cccc2c1CCc1sc(N)nc1-2 [SKA-114, 6-Methoxy-4,5-dihydronaphtho[1,2-d]thiazol-2-amine] | reduced both potency and selectivity | 200 °C | –
COc1cc2sc(N)nc2c2ccccc12 [SKA-117, 5-Methoxynaphtho[1,2-d]thiazol-2-amine] | reduced potency and selectivity | 213 °C | –
Cc1cc2oc(N)nc2c2ccccc12 [SKA-120, 5-Methylnaphtho[1,2-d]oxazol-2-amine] | – | – | EC50 [4, 8]: 180 nM; EC50 [4, 9]: 450 nM; selectivity for KCa3.1 over KCa2.3 ([4]; ratio of EC50 values): ~50 fold
Clc1ccccc1C(c1ccccc1)(c1ccccc1)n1cccn1 [TRAM-34, 1-[(2-chlorophenyl)diphenylmethyl]-1H-pyrazole, reference compound] | – | – | effect on the potentiation of BK-induced relaxation by SKA-111/SKA-121 [6]: prevented the increase of relaxation; also recorded: prevented this potentiation
c1cc2cc(c1)C[n+]1ccc(c3ccccc31)NCc1ccc(cc1)CNc1cc[n+](c3ccccc13)C2 [UCL1684, 6,10-diaza-3(1,3)8,(1,4)-dibenzena-1,5(1,4)-diquinolinacyclodecaphane, reference compound] | – | – | effect on KCa2.3 currents activated by 20 μM SKA-121 ([5]; FIG. 4F): had a similar effect
